Assay results from patent US8524744B2, “Arylamine ketones, their preparation methods, the pharmaceutical composition containing them and their use” (Institute of Mataria Medica, Chinese Academy of Medical …, priority 2004, dated 2013).
Structures can show the parent of a compound that is named as a salt.

System: rat granuloma induced by cotton ball
Assay: rat granuloma induced by cotton ball
Type: in vivo
Settings: orally, 100 mg·kg^−1, 7 days, Wistar rats
Protocol: Wistar rats (male, 165±15 g) were randomly divided into two groups (treatment and control) with 10 animals for each group. 10 mg of steriled cotton ball was planted into the two groins of the rat under the anaesthetized by ether. The animals were orally administrated with the compound for 7 days. At seventh day the cotton ball was taken out, dried by the oven and weighed. The hyperplasia of granuloma was evaluated by the increase of weight of dried cotton ball.

CCOC(=O)C1CCN(CCC(=O)/C=C/c2ccc(Cl)cc2)CC1 [Compound 3, 5-[(4-Ethoxycarbonyl)piperidyl]-1-(4-chlorophenyl)-1-penten-3-one hydrochloride]
Inhibition (%) of rat granuloma: 37.93%
